Experimental data taken from patent US4385058A, “Pyrimidone derivatives” (Smith Kline & French Laboratories Limited, priority 1980, dated 1983).

System: histamine H2 -receptors
Test: Inhibition of histamine-stimulated acid secretion in the Heidenhain pouch dog
Format: in vivo
Details: intravenous administration; dose levels adjusted to produce similar peak responses
Text: Heidenhain pouch dogs can be prepared and used as described in European Specification No. 15138.

## Cc1ccc(Cc2cnc(NCCSCc3cc(CN(C)C)ccn3)[nH]c2=O)cn1 [Example 1, 2-[2-(4-dimethylaminomethyl-2-pyridylmethylthio)ethylamino]-5-(6-methyl-3-pyridylmethyl)-4-pyrimidone]
  duration of activity versus cimetidine: longer duration of activity than cimetidine
